In publication PMC11471635, “Linkage of alternative exon assembly in Drosophila TrpA1 transcripts” (Molecules and Cells, 2024):

Legend:
Assay in all cases: two-electrode voltage clamp, Xenopus oocytes
Assay type in all cases: cell-based
[1] = target: T1, humTRPA1 (Homo sapiens, UniProt O75762)
T1 construct: gene TRPA1; human TRPA1; cRNA-injected Xenopus laevis oocytes (electrophysiology as for insect TRPA1s)

[2] = target: T2, agTRPA1(B) (Anopheles gambiae, UniProt B3G3I7)
T2 construct: isoform with TRPA1(B)-type N-terminus and exon6a-encoded BAT; cRNA-injected Xenopus laevis oocytes
T2 sequence (B3G3I7 1-1248): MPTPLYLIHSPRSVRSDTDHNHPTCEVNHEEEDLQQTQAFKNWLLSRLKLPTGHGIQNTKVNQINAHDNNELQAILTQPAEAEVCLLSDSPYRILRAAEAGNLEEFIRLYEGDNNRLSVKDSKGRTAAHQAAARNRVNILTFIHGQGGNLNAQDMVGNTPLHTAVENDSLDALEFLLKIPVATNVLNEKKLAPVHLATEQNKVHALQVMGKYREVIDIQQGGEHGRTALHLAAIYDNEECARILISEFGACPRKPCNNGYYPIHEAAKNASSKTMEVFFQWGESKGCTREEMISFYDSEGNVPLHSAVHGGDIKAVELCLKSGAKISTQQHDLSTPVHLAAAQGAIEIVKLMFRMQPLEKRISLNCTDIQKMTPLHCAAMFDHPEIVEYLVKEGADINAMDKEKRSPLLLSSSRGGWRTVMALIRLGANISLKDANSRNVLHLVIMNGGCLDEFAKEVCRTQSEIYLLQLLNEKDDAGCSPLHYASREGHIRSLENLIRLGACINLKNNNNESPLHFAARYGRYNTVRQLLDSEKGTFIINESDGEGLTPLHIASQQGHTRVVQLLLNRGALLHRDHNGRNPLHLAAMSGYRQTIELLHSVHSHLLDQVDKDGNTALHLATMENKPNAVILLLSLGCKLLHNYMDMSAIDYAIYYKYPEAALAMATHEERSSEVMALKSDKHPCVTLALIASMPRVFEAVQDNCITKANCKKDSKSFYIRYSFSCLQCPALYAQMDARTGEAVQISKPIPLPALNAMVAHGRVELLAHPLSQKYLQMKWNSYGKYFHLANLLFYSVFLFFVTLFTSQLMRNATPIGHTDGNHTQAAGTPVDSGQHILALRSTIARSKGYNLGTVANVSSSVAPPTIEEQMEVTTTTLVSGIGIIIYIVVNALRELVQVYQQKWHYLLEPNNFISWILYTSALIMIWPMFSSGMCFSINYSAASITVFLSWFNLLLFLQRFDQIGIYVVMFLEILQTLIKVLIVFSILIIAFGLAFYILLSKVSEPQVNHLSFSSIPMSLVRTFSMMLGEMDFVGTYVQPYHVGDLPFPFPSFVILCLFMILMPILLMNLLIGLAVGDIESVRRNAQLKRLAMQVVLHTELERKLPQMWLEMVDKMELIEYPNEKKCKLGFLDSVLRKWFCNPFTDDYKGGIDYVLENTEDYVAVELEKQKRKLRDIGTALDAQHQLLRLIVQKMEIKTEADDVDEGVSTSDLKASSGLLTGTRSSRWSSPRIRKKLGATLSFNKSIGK

[3] = target: T3, TRPA1(A) (TRPA1(A)-exon10a) (Drosophila melanogaster, UniProt Q7Z020)
T3 construct: full-length isoform with exon1a-encoded N-terminus and exon10a-encoded BAT domain; cRNA-injected Xenopus laevis oocytes
T3 sequence (Q7Z020 1-1197): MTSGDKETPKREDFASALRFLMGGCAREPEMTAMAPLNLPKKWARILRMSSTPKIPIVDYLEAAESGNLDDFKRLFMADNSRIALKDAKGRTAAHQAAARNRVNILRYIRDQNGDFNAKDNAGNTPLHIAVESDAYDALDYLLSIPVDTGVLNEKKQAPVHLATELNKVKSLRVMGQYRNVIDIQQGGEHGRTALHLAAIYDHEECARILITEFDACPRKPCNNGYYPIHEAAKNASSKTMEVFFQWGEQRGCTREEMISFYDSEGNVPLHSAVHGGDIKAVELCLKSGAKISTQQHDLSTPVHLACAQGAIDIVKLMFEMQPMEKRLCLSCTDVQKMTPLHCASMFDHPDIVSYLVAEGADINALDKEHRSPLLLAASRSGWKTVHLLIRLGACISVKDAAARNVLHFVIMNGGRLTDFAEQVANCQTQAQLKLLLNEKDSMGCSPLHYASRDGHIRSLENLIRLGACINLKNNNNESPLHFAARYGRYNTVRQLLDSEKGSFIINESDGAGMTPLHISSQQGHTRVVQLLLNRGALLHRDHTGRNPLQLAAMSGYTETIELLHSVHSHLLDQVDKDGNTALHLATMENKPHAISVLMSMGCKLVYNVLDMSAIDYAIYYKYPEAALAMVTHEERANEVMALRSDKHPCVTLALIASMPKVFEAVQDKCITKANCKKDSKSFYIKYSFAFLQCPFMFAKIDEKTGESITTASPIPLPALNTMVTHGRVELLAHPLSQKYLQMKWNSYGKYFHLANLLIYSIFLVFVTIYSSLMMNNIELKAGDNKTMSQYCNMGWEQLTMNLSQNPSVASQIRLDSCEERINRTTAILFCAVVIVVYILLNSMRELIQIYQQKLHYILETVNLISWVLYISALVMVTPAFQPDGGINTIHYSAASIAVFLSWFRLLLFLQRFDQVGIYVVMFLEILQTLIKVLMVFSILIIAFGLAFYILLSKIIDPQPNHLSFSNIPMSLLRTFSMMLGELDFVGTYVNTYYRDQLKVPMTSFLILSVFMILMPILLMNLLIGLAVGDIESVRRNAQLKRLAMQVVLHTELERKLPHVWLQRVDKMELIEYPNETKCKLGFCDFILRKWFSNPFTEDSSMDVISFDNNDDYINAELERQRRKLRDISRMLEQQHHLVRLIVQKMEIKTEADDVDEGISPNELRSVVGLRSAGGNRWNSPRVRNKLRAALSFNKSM

[4] = target: T4, agTRPA1(A) (Anopheles gambiae, UniProt A0A1S4GN50)
T4 construct: isoform with TRPA1(A)-type N-terminus and exon6a-encoded BAT; cRNA-injected Xenopus laevis oocytes
T4 sequence (A0A1S4GN50 1-1208): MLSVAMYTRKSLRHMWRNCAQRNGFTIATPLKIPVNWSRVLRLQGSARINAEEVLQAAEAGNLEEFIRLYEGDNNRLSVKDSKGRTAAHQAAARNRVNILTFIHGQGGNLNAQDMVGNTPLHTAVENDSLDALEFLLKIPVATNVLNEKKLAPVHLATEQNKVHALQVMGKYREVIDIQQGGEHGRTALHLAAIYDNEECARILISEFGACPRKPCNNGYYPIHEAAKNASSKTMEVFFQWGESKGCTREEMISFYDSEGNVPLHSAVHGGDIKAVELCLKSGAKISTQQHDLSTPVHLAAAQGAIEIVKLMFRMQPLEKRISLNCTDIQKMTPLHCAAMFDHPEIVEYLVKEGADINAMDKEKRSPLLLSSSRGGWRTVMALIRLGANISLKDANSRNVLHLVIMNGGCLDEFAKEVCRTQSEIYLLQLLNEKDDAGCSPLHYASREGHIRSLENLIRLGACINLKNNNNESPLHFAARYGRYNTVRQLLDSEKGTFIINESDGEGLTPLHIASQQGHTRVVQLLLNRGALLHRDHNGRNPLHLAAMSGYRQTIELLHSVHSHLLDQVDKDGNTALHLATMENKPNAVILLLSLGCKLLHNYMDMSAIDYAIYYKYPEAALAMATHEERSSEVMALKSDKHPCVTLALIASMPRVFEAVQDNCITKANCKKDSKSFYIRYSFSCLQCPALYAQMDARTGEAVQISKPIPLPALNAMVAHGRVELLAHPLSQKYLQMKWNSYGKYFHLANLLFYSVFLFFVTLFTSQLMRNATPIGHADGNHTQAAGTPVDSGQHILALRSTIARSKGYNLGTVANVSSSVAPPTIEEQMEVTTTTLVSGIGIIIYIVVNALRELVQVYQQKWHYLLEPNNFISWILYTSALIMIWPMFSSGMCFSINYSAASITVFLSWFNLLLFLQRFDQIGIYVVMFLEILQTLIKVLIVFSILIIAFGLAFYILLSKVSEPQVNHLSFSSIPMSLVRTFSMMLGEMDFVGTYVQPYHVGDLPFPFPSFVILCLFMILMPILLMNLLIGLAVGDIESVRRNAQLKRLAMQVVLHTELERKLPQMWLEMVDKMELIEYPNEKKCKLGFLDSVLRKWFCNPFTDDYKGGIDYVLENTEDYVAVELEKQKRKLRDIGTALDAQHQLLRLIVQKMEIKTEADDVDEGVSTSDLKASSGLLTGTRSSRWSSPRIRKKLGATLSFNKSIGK

T1 sequence (O75762 whole entry): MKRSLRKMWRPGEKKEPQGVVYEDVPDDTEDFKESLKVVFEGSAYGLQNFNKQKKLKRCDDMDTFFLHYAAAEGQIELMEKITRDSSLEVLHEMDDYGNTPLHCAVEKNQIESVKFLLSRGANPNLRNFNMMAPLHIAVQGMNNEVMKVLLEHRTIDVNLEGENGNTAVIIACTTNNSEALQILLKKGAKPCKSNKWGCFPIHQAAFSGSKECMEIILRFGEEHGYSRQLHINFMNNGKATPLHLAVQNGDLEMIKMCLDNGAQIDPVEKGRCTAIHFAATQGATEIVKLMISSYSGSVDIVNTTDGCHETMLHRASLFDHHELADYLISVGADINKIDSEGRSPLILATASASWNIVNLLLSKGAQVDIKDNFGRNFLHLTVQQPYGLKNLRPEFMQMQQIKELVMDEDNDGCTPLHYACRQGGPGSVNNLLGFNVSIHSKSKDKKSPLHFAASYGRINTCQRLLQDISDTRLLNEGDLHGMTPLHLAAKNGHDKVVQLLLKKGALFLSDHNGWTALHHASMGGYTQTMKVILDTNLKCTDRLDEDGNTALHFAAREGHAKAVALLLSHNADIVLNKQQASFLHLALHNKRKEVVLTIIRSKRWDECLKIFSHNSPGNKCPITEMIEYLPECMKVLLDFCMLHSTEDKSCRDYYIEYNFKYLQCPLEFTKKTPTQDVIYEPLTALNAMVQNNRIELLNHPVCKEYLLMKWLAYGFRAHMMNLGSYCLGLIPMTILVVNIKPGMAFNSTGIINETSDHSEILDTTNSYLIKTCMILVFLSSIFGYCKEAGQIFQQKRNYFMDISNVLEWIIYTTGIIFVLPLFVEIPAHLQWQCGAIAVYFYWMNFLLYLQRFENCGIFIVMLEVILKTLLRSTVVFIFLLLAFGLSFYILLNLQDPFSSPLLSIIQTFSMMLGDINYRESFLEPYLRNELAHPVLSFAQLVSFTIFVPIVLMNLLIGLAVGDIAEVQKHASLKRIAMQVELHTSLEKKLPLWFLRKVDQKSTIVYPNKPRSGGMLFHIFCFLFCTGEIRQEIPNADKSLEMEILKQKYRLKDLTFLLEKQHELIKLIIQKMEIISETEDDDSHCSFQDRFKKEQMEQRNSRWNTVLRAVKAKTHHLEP

Compound: CN1C(=O)C=CC1=O [N-methyl maleimide]
- EC50 [1]: 5.1 ± 0.5 µM
- EC50 [2]: 39.5 ± 1.1 µM
- EC50 [3]: 13.6 ± 0.6 µM
- EC50 [4]: 43.8 ± 3.9 µM
